Laboratory results published in the NIST ThermoML archive (doi:10.1021/je900414p).

Conditions: Liquid

CCOS(=O)(=O)[O-].CCn1cc[n+](C)c1 [1-ethyl-3-methylimidazolium ethyl sulfate]
mass density [kg/m3]
Conditions | 100 kPa | 2500 kPa | 5000 kPa | 10000 kPa | 15000 kPa | 20000 kPa | 25000 kPa | 30000 kPa | 35000 kPa
283.15 K | 1247.6 | 1248.59 | 1249.58 | 1251.56 | 1253.65 | 1255.44 | 1257.31 | 1259.18 | 1261.04
288.15 K | 1244.17 | 1245.15 | 1246.17 | 1248.17 | 1250.14 | 1252.1 | 1254.03 | 1255.9 | 1257.77
293.15 K | 1240.67 | 1241.7 | 1242.72 | 1244.75 | 1246.75 | 1248.72 | 1250.66 | 1252.56 | 1254.46
298.15 K | 1237.33 | 1238.32 | 1239.36 | 1241.41 | 1243.42 | 1245.42 | 1247.38 | 1249.31 | 1251.22
303.15 K | 1233.95 | 1234.96 | 1236.02 | 1238.1 | 1240.14 | 1242.15 | 1244.14 | 1246.11 | 1248.06
308.15 K | 1230.49 | 1231.54 | 1232.6 | 1234.71 | 1236.78 | 1238.83 | 1240.83 | 1242.81 | 1244.76
313.15 K | 1227.14 | 1228.21 | 1229.29 | 1231.41 | 1233.51 | 1235.57 | 1237.6 | 1239.6 | 1241.57
318.15 K | 1223.86 | 1224.94 | 1226.03 | 1228.17 | 1230.31 | 1232.4 | 1234.44 | 1236.49 | 1238.47
323.15 K | 1220.46 | 1221.54 | 1222.66 | 1224.85 | 1226.99 | 1229.11 | 1231.18 | 1233.23 | 1235.25
328.15 K | 1217.07 | 1218.15 | 1219.31 | 1221.5 | 1223.69 | 1225.81 | 1227.93 | 1229.99 | 1232.04
333.15 K | 1213.67 | 1214.63 | 1215.87 | 1218.14 | 1220.35 | 1222.53 | 1224.65 | 1226.74 | 1228.8
338.15 K | 1210.4 | 1211.52 | 1212.68 | 1214.94 | 1217.17 | 1219.36 | 1221.51 | 1223.61 | 1225.71

CCO [ethanol]
mass density [kg/m3]
Conditions | 100 kPa | 2500 kPa | 5000 kPa | 10000 kPa | 15000 kPa | 20000 kPa | 25000 kPa | 30000 kPa | 35000 kPa
283.15 K | 797.76 | 799.74 | 801.73 | 805.58 | 809.28 | 812.8 | 816.2 | 819.47 | 822.63
288.15 K | 793.65 | 795.66 | 797.73 | 801.67 | 805.43 | 809.06 | 812.52 | 815.87 | 819.04
293.15 K | 789.19 | 791.25 | 793.37 | 797.42 | 801.3 | 804.99 | 808.53 | 811.94 | 815.23
298.15 K | 784.92 | 787.03 | 789.21 | 793.38 | 797.34 | 801.11 | 804.75 | 808.21 | 811.58
303.15 K | 780.63 | 782.81 | 785.04 | 789.3 | 793.37 | 797.25 | 800.93 | 804.49 | 807.95
308.15 K | 776.26 | 778.54 | 780.82 | 785.22 | 789.37 | 793.34 | 797.14 | 800.76 | 804.27
313.15 K | 771.91 | 774.26 | 776.62 | 781.13 | 785.4 | 789.45 | 793.33 | 797.04 | 800.61
318.15 K | 767.58 | 769.99 | 772.41 | 777.04 | 781.43 | 785.59 | 789.55 | 793.36 | 796.98
323.15 K | 763.09 | 765.56 | 768.08 | 772.84 | 777.34 | 781.59 | 785.65 | 789.53 | 793.24
328.15 K | 758.54 | 761.09 | 763.7 | 768.58 | 773.22 | 777.57 | 781.73 | 785.7 | 789.5
333.15 K | 753.96 | 756.61 | 759.27 | 764.32 | 769.08 | 773.56 | 777.81 | 781.87 | 785.76
338.15 K | 749.42 | 752.16 | 754.89 | 760.09 | 764.99 | 769.59 | 773.96 | 778.09 | 782.06
343.15 K | 744.74 | 747.57 | 750.39 | 755.74 | 760.75 | 765.47 | 769.94 | 774.17 | 778.23
